Where a name gives a salt, the structure may show the parent alone. Read-outs that look alike come from different tables or passages of the source.
Legend:
[1] = target: BIR3 domain of human XIAP (residues 252-350) (Homo sapiens (Human), UniProt P98170); assay: XIAP in vitro competitive displacement binding assay (fluorescence polarization); details: for IC50: read-out: IC50 or PI Xiap: IC50
[2] = target: BIR3 domain of human cIAP-1 (residues 267-363) (Homo sapiens (Human), UniProt Q13490); assay: cIAP-1 in vitro competitive displacement binding assay (fluorescence polarization; Probe A AVPIK(5&6FAM)-amide or Probe B AbuRPFK(5&6FAM)-amide)
[3] = Probe B AbuRPFK(5&6FAM)-amide, read-out: IC50 or PI cIAP1: IC50
[4] = Probe A AVPIK(5&6FAM)-amide, read-out: IC50 or PI cIAP1: IC50

| SMILES | IC50 [1] [nM] | IC50 [2, 3] [µM] | further results |
| --- | --- | --- | --- |
| C[C@@H]1CN([C@@H](C)C(=O)N2CC(C)(C)c3ccc(C#N)cc32)CCN1 [Example 196, 3,3-Dimethyl-1-[(2S)-2-[(3R)-3-methylpiperazin-1-yl]propanoyl]-2,3-dihydro-1H-indole-6-carbonitrile hydrochloride] | 5600 | 31 |  |
| C[C@@H]1CN(CC(=O)N2CCc3ccc(NS(C)(=O)=O)cc32)CCN1 [Example 8, N-{1-[2-((R)-3-Methyl-piperazin-1-yl)-acetyl]-2,3-dihydro-1H-indol-6-yl}-methane-sulfonamide] |  |  | inhibition at 160 µM ([1]; 1 h, @ 160 μM, read-out: IC50 or PI Xiap: PI): 59%; inhibition at 160 µM ([2]; 3 h, Probe A, @ 160 μM, read-out: IC50 or PI cIAP1: PI): 46% |
| C[C@@H]1CN(CC(=O)N2CC3(CC3)c3ccc(Cl)cc32)CCN1 [Example 53, 1-{6′-Chloro-1′,2′-dihydrospiro[cyclopropane-1,3′-indole]-1′-yl}-2-[(3R)-3-methyl-piperazin-1-yl]ethan-1-one hydrochloride salt] | 9700 | 9.8 |  |
| COC[C@H]1CN[C@H](C)CN1CC(=O)N1CC(C)(C)c2cnc(N(C)c3ccccc3)cc21 [Example 84, 1-[3,3-Dimethyl-6-(methyl-phenyl-amino)-2,3-dihydro-pyrrolo[3,2-c]pyridin-1-yl]-2-((2R,5R)-2-methoxymethyl-5-methyl-piperazin-1-yl)-ethanone hydrochloride salt] | 8800 | 1.3 | IC50 [2]: < 10 µM |
| COC[C@H]1CN[C@H](C)CN1CC(=O)N1CC(C)(C)c2cnc(C(C)(F)F)cc21 [Example 181, 1-[6-(1,1-Difluoroethyl)-3,3-dimethyl-1H,2H,3H-pyrrolo[3,2-c]pyridin-1-yl]-2-[(2R,5R)-2-(methoxymethyl)-5-methylpiperazin-1-yl]ethan-1-one dihydrochloride] | 330 |  | IC50 [2]: < 1 µM; IC50 ([2]; read-out: IC50 or PI cIAP1: IC50): 0.25 µM |
| CNC(=O)[C@H]1CN[C@H](C)CN1CC(=O)N1CC(C)(C)c2ccc(Cl)cc21 [Example 54, (2R,5R)-1-[2-(6-Chloro-3,3-dimethyl-2,3-dihydro-indol-1-yl)-2-oxo-ethyl]-5-methyl-piperazine-2-carboxylic acid methylamide hydrochloride salt] | 1800 | 2.1 |  |

Continued, in another order:

| IC50 [1] [nM] | IC50 [2, 3] [µM] | SMILES | further results |
| --- | --- | --- | --- |
| 12000 | 8.2 | C[C@@H]1CN(CC(=O)N2CC3(CCC3)c3ccc(Cl)cc32)CCN1 [Example 55, 1-{6′-Chloro-1′,2′-dihydrospiro[cyclobutane-1,3′-indole]-1′-yl}-2-[(3R)-3-methyl-piperazin-1-yl]ethan-1-one hydrochloride salt] |  |
| 3100 | 0.68 | CC[C@H]1CN[C@H](C)CN1CC(=O)N1CC(C)(C)c2cnc(Cn3cccn3)cc21 [Example 95, 1-[3,3-Dimethyl-6-(1H-pyrazol-1-ylmethyl)-1H,2H,3H-pyrrolo[3,2-c]pyridin-1-yl]-2-[(2S,5R)-2-ethyl-5-methylpiperazin-1-yl]ethan-1-one] |  |
| 920 | 0.32 | COC[C@H]1CN[C@H](C)CN1CC(=O)N1C[C@@](C)(COC)c2ccc(Br)cc21 [Example 169, 1-[(3S)-6-Bromo-3-(methoxymethyl)-3-methyl-2,3-dihydro-1H-indol-1-yl]-2-[(2R,5R)-2-(methoxymethyl)-5-methylpiperazin-1-yl]ethan-1-one hydrochloride] |  |
| 1200 |  | C[C@@H]1CN(CC(=O)N2CCc3ccc(S(=O)(=O)c4ccccc4)cc32)CCN1 [Example 33, 1-(6-Benzene-sulfonyl-2,3-dihydro-indol-1-yl)-2-((R)-3-methyl-piperazin-1-yl)-ethanone hydrochloride salt] | IC50 [2]: < 10 µM; IC50 [2, 4]: 3.8 µM |
| 1800 |  | C[C@@H]1CN(CC(=O)N2CCc3ccc(S(=O)(=O)N4CCCC4)cc32)CCN1 [Example 37, 2-((R)-3-Methyl-piperazin-1-yl)-1-[6-(pyrrolidine-1-sulfonyl)-2,3-dihydro-indol-1-yl]-ethanone hydrochloride salt] | IC50 [2, 4]: 23 µM |

Source: patent US9018214B2, “Bicyclic heterocycle compounds and their uses in therapy” (Astex Therapeutics Limited, priority 2011, dated 2015)
